The source of these data is EP1306084A1, “Compositions for the control of parasitic infestations in fish” (Alpharma AS, priority 1998, dated 1999).

Data set [1] can be described thus: Specific growth rate after sea transfer (Example 4). In kind it is in vivo, salmon (Salmo salar). Conditions: treated groups, after about 12 weeks; control group 1.79%. As to the method: About 2,500 salmon (Salmo salar) of average weight 42 grams were treated orally with a daily dosage of 4 mg hexaflumuron per kilo fish for 5 days. The treatment was carried out in freshwater one week before the fish were transferred to sea water. In the sea water, the fish was distributed into 3 different minicages with 800-850 fish in each. At the same time 1,000 untreated fish (from a different fish farm) weighing on average 50 grams were transferred to sea in a neighbouring cage. After being transferred to sea water, the fish were exposed to natural sea lice infection. The number of lice on 10 fish from each cage were counted every third week to check if there was any difference in the number of lice in the cages. When ending the trial, about 12 weeks after the fish had been transferred to sea, the fish in each cage were weighed to check possible differences in growth (SGR, specific growth rate). The water temperature varied between 10-16°C during the trial. […] From 9 weeks on, there was no difference between the groups. The dosage rate that was used in this trial, i.e. 4 mg of hexaflumuron per kg fish per day, is very low. By increasing the dosage the protection time would probably be extended. […] The SRG was measured after about 12 weeks and it was estimated at 1.79% in the control group, and 1.95 - 2.00% in the treated groups.

Data set [2] can be described thus: Adverse or side effects observed over all trials. In kind it is in vivo, fish. Conditions: injection, bath solution or oral treatment; all dosages examined. An excerpt: This is in regard to all the dosages that have been examined and the various administration methods which have been used.
The subject of data set [3] is sea lice. Description: Oral or bath treatment in freshwater before sea transfer, sea lice counts after natural infestation (Example 6). In kind it is in vivo, Atlantic salmon (Salmo salar). As to the method:
(§1) The treatment dosage was 9 mg hexaflumuron per kg fish per day for 10 days. This is indicated by "Groups/Timepoints" in the figure; • Figure 2 relates to the trial in Example 2 that was carried out on Atlantic salmon (Salmo salar). […] The treatment dosage varied between 3 - 9 mg hexaflumuron and 9- 12 mg fluazuron per kg fish per day for 7 days. This is indicated by "Groups/Timepoints" in the diagram. […] The treated groups are compared to an untreated control group. The treatment dosage was 4 mg hexaflumuron per kg fish per day for 5 days. This is indicated by "Groups/Timepoints" in the figure. Cage 2 = controls, Cage 4-6 = treated groups, 16.6.97 = time point for sea transfer and 5.8.97= controls treated by bathing with deltamethrin; • Figure 4 relates to the trial described in Example 5, which was carried out on sea trout (Salmo trutta). […] The treated groups are compared with an untreated control group. The dosage for oral treatment was 4 mg hexaflumuron per kilo fish per day for 5 days, and 5 ppm hexaflumuron as a 30 minute bath treatment. This is indicated by "Groups/Timepoints" in the figure. Cage 1.4 = Controls, cage 1.3 = Oral treatment, cage 1.2 = Bath treatment. […] The treated groups are compared with an untreated control group, and one group that has been treated orally with teflubenzuron (10 mg/kg of teflubenzuron per kg fish per day for 7 days). The dosage for oral treatment was 5.6 mg hexaflumuron per kg fish per day for 7 days, and 5 ppm hexaflumuron as a 30 minute bath treatment. […] End of treatment: 22.10.97, Sea transfer: 23.10.97. T1 = 3 weeks post end of treatment, T2 = 5 weeks post end of treatment, T3 = 9 weeks post end of treatment, T4 = 12 weeks post end of treatment; • Figure 6 relates to the trial in Example 6 at time points 4-6, with the same trial parameters as for Figure 5. T5 = 15 weeks post end of treatment, T6 = 17 weeks post end of treatment. Cage 3 and 4 were treated by bath with deltamethrin after sea lice counting at T4 (12.01.98); • Figure 7 relates to the trial described in Example 7 where salmon were injected on 17.12.97 with two formulations (groups L and R, respectively) of hexaflumuron and a vaccine formulation without hexaflumuron (control). […] The vaccinated fish was transferred to sea water on 09.01.98; • Figure 8 summarises the trial of Example 8 where salmon smolts were injected with 9 different active substances on 08.07.98. Only results for Moxidectin (Mox.), Lufenuron (Luf.) and hexaflumuron in Apoject 1-Fural (Hex.Apo) and in animal oil (Hex.oil) are shown, and • Figure 9 summarises the trial described in Example 10 where salmon were injected on 03.12.97 with 3 different formulations of hexaflumuron (Hexa 1, Hexa 2 and Hexa 3). The fish were transferred to sea water at T0.
About 400 Atlantic salmon (Salmo salar) of an average weight of 80 grams were divided into four groups of 100 fish in each. One group was given an oral treatment of 5.6 mg hexaflumuron per kg fish each day for 7 days before sea transfer. Group two was given a bath treatment with a dosage of 5 ppm (mg/l) hexaflumuron for 30 minutes with a formulation containing 10% hexaflumuron. Group three was given oral treatment with a daily dosage of 10 mg teflubenzuron per kg fish for 7 days, while the last group remained untreated. […] Every third week, lice from 10 fish in each cage were counted to assess if there was a difference in the number of lice between the cages. […]

The test system of data set [4] is sea lice. In words: Oral treatment (coated feed / Akvaletter) of naturally sea lice infected salmon in minicages (Example 2). The class given is in vivo, Atlantic salmon (Salmo salar). As to the method: as §1, with “T0. […]” for “T0.”

Some results are limits rather than exact numbers.

For the compound `O=C(NC(=O)c1c(F)cccc1F)Nc1cc(Cl)c(OC(F)(F)C(F)F)c(Cl)c1` [hexaflumuron], the “SGR (specific growth rate)” value in data set [1] is 1.95 - 2.00%. In addition, the “adverse or side effects” value in data set [2] is “No adverse or side effects have been observed”. For the same compound, the protection period entry in the data set on sea lice [3] (hexaflumuron oral or bath before sea transfer) is “at least 11 weeks”. For the same compound, in the data set with sea lice [3] (oral 5.6 mg per kg each day for 7 days or bath 5 ppm for 30 minutes, 5, 8 and 11 weeks (time points 2, 3 and 4)), the “number of lice larger than Chalimus II versus control” value is on record as “significantly lower”. The “reduced the number of lice as compared to the control treatment” value with sea lice [4] (all groups treated with hexaflumuron, 3.0-9.0 mg per day, 7 days, 8.0 - 9.8°C) is given as “more than 70%”. Moreover, the “reduction of sensitive chalimus and pre-adult stages” value is listed as greater than 99% with sea lice [4] (groups given the highest dosage (9.0 mg per day, 7 days)) and greater than 90% in the data set on sea lice [4] (hexaflumuron groups, 3.0-9.0 mg per day, 7 days).
